Data as given in ChEMBL document CHEMBL1142066, “In vitro effects of antimicrobial agents on planktonic and biofilm forms of Staphylococcus lugdunensis clinical isolates” (2007).
Values after ≈ are worked out from the molar mass of the structure shown. Active and inactive are the calls of the source. The rule behind the calls is not given here.

What was measured:
[1] = tested on: Staphylococcus lugdunensis; experiment: Antimicrobial susceptibility of Staphylococcus lugdunensis IDRL5256 biofilms after 24 hrs assessed as bacterial regrowth; assay type: functional
[2] = tested on: Staphylococcus lugdunensis; experiment: Antimicrobial susceptibility of Staphylococcus lugdunensis IDRL5254 biofilms after 24 hrs assessed as bacterial regrowth; assay type: functional
[3] = tested on: Staphylococcus lugdunensis; experiment: Increase in biofilm formation of Staphylococcus lugdunensis assessed as percent biofilm forming isolates; assay type: functional
[4] = tested on: Staphylococcus lugdunensis; experiment: Antimicrobial susceptibility of Staphylococcus lugdunensis IDRL2492 biofilms after 24 hrs assessed as bacterial regrowth; assay type: functional
[5] = tested on: Staphylococcus lugdunensis; experiment: Antimicrobial susceptibility of Staphylococcus lugdunensis IDRL856 biofilms after 24 hrs assessed as bacterial regrowth; assay type: functional
[6] = tested on: Staphylococcus lugdunensis; experiment: Antimicrobial susceptibility of Staphylococcus lugdunensis isolates by broth microdilution method; assay type: functional; details: for MIC50 / MIC90: Staphylococcus lugdunensis
[7] = tested on: Staphylococcus lugdunensis; experiment: Antimicrobial susceptibility of Staphylococcus lugdunensis IDRL2639 biofilms after 24 hrs assessed as bacterial regrowth; assay type: functional
[8] = tested on: Staphylococcus lugdunensis; experiment: Antimicrobial susceptibility of Staphylococcus lugdunensis IDRL2414 biofilms after 24 hrs assessed as bacterial regrowth; assay type: functional
[9] = tested on: Staphylococcus lugdunensis; experiment: Effect on biofilm formation of Staphylococcus lugdunensis assessed as percent non-biofilm forming isolates; assay type: functional; set-up: concentration or dose not given beside the values
[10] = tested on: Staphylococcus lugdunensis; experiment: Antimicrobial susceptibility of Staphylococcus lugdunensis IDRL2394 biofilms after 24 hrs assessed as bacterial regrowth; assay type: functional
[11] = tested on: Staphylococcus lugdunensis; experiment: Antimicrobial susceptibility of Staphylococcus lugdunensis IDRL2588 biofilms after 24 hrs assessed as bacterial regrowth; assay type: functional
[12] = tested on: Staphylococcus lugdunensis; experiment: Antimicrobial susceptibility of Staphylococcus lugdunensis IDRL2526 biofilms after 24 hrs assessed as bacterial regrowth; assay type: functional
[13] = tested on: Staphylococcus lugdunensis; experiment: Antimicrobial susceptibility of Staphylococcus lugdunensis IDRL2622 biofilms after 24 hrs assessed as bacterial regrowth; assay type: functional
[14] = tested on: Staphylococcus lugdunensis; experiment: Antimicrobial susceptibility of Staphylococcus lugdunensis IDRL2640 biofilms after 24 hrs assessed as bacterial regrowth; assay type: functional
[15] = tested on: Staphylococcus lugdunensis; experiment: Antimicrobial susceptibility of Staphylococcus lugdunensis IDRL5258 biofilms after 24 hrs assessed as bacterial regrowth; assay type: functional
[16] = tested on: Staphylococcus lugdunensis; experiment: Antimicrobial susceptibility of Staphylococcus lugdunensis IDRL5204 biofilms after 24 hrs assessed as bacterial regrowth; assay type: functional
[17] = tested on: Staphylococcus lugdunensis; experiment: Decrease in biofilm formation of Staphylococcus lugdunensis assessed as percent biofilm forming isolates; assay type: functional; set-up: concentration or dose not given beside the values
[18] = tested on: Staphylococcus lugdunensis; experiment: Antimicrobial susceptibility of Staphylococcus lugdunensis IDRL5204 isolate from prosthetic joint infection patient by broth microdilution method; assay type: functional
[19] = tested on: Staphylococcus lugdunensis; experiment: Antimicrobial susceptibility of Staphylococcus lugdunensis IDRL2664 biofilms after 24 hrs assessed as bacterial regrowth; assay type: functional
[20] = tested on: Staphylococcus lugdunensis; experiment: Antimicrobial susceptibility of Staphylococcus lugdunensis IDRL2554 biofilms after 24 hrs assessed as bacterial regrowth; assay type: functional
[21] = tested on: Staphylococcus lugdunensis; experiment: Stimulation of Staphylococcus lugdunensis IDRL5256 biofilm formation; assay type: functional, organism-based
[22] = tested on: Staphylococcus lugdunensis; experiment: Antimicrobial susceptibility of Staphylococcus lugdunensis IDRL2394 isolate from prosthetic joint infection patient by broth microdilution method; assay type: functional
[23] = tested on: Staphylococcus lugdunensis; experiment: Ratio of MBC to MIC for Staphylococcus lugdunensis IDRL5256 isolate from prosthetic joint infection patient by broth microdilution method; assay type: functional
[24] = tested on: Staphylococcus lugdunensis; experiment: Antimicrobial susceptibility of Staphylococcus lugdunensis IDRL5256 isolate from prosthetic joint infection patient by broth microdilution method; assay type: functional
[25] = tested on: Staphylococcus lugdunensis; experiment: Antimicrobial susceptibility of Staphylococcus lugdunensis IDRL5254 isolate from intravascular catheter infection patient by broth microdilution method; assay type: functional

| SMILES | BBC [1] [µg/mL] | BBC [2] [µg/mL] | Activity [3] [%] | BBC [4] [µg/mL] | BBC [5] [µg/mL] | MBC50 [6] [µg/mL] | MBC90 [6] [µg/mL] | MIC50 [6] [µg/mL] | MIC90 [6] [µg/mL] | BBC [7] [µg/mL] | BBC [8] [µg/mL] | Activity [9] [%] | BBC [10] [µg/mL] | BBC [11] [µg/mL] | BBC [12] [µg/mL] | BBC [13] [µg/mL] | BBC [14] [µg/mL] | BBC [15] [µg/mL] | BBC [16] [µg/mL] | Activity [17] [%] | also measured |
| --- | --- | --- | --- | --- | --- | --- | --- | --- | --- | --- | --- | --- | --- | --- | --- | --- | --- | --- | --- | --- | --- |
| CO[C@H]1/C=C/O[C@@]2(C)Oc3c(C)c(O)c4c(O)c(c(/C=N/N5CCN(C)CC5)c(O)c4c3C2=O)NC(=O)/C(C)=C\C=C\[C@H](C)[C@H](O)[C@@H](C)[C@@H](O)[C@@H](C)[C@H](OC(C)=O)[C@@H]1C [RIFAMPIN] | 32 | 64 | 7 | 64 | 8 | 8 (≈ 9.72 µM) | >32 | ≤ 0.03 | ≤ 0.03 | 32 | 0.25 | 93 | 0.25 | 64 | 32 | 64 | 64 | 8 | 32 | 0 |  |
| Cc1cc(NS(=O)(=O)c2ccc(N)cc2)no1 [SULFAMETHOXAZOLE] |  |  |  |  |  |  |  |  |  |  |  |  |  |  |  |  |  |  |  |  | MIC [18]: 304 µg/mL (≈ 1200 µM) |
| CN(C)[C@@H]1C(O)=C(C(N)=O)C(=O)[C@@]2(O)C(O)=C3C(=O)c4c(O)cccc4[C@@](C)(O)[C@H]3C[C@@H]12 [TETRACYCLINE] | 128 | 128 | 7 | 128 | 128 | >32 | >32 | 0.25 (≈ 0.563 µM) | 1 (≈ 2.25 µM) | 16 | 128 | 0 | 128 | 128 | 128 | 128 | 128 | 64 | 1 | 93 | BBC [19]: 128 µg/mL; BBC [20]: 128 µg/mL; Activity [21]: Active |
| COc1cc(Cc2cnc(N)nc2N)cc(OC)c1OC [TRIMETHOPRIM] |  |  |  |  |  |  |  |  |  |  |  |  |  |  |  |  |  |  |  |  | MIC [18]: 16 µg/mL (≈ 55.1 µM) |
| CN[C@H](CC(C)C)C(=O)N[C@H]1C(=O)N[C@@H](CC(N)=O)C(=O)N[C@H]2C(=O)N[C@H]3C(=O)N[C@H](C(=O)N[C@H](C(=O)O)c4cc(O)cc(O)c4-c4cc3ccc4O)[C@H](O)c3ccc(c(Cl)c3)Oc3cc2cc(c3O[C@@H]2O[C@H](CO)[C@@H](O)[C@H](O)[C@H]2O[C@H]2C[C@](C)(N)[C@H](O)[C@H](C)O2)Oc2ccc(cc2Cl)[C@H]1O [VANCOMYCIN] | >128 | >128 | 27 | >128 | >128 | >128 | >128 | 1 (≈ 0.69 µM) | 2 (≈ 1.38 µM) | >128 | >128 | 47 | >128 | >128 | >128 | >128 | >128 | >128 | 4 | 27 | MBC [22]: 64 µg/mL (≈ 44.2 µM); Ratio [23]: >=64; BBC [19]: 8 µg/mL; BBC [20]: 4 µg/mL; MBC [24]: 4 µg/mL (≈ 2.76 µM); MBC [25]: 64 µg/mL (≈ 44.2 µM) |
